Laboratory results: US20180265867A1, “NUCLEIC ACID MOLECULES WITH ENHANCED ACTIVITY” (priority 2015, published 2018)
d = 2'-deoxy (DNA); r = 2'-OH (RNA)

Assays:
Type in all cases: cell-based, human
[1] = test system: MG63 cells; experiment: Flow cytometry uptake kinetics and ODN2006 blocking in MG63 cells
Description: To determine cpRNA cellular uptake kinetics, FACS experiments were repeated as mentioned above using MG63 cells, where Cy3-cpRNA was treated for different time points. Briefly, Cy3-cpRNA (50 nM) was added to cells, followed by incubation for 0.5 h, 1 h, 1.5 h, 2 h, 3 h and 4 h respectively. The cells were subsequently trypsinised and analyzed by FACS as mentioned above.
To perform […] blocking studies, seeded MG63 cells were incubated with 600 nM 3′-FITC labeled ODN2006 for 1 h, followed by addition of 50 nM cpRNA. Cells were incubated for additional 0.5 h, 1 h, 1.5 h, 2 h, 3 h and 4 h respectively, trypsinised and analyzed by FACS analysis as mentioned above.
To verify if the uptake mechanism of cpRNA was analogous to viral RNA and the RNA mimic polyriboinosinic:polyribocytidylic acid or poly(I:C), blocking studies were performed using the Btype single-stranded DNA sequence ODN2006 which share a common uptake receptor. This synthetic phosphorothioate modified oligo, though initially identified as a TLR9 agonist, blocks cellular uptake of viral RNA and poly(I:C) by preferentially competing with the common RNA uptake receptor. Blocking experiment were performed by pre-incubating the cells with FITC labeled ODN2006 for 1 h, followed by the addition of Cy3-labeled cpRNA. The blocking studies and cellular uptake was monitored using FACS analysis at different time points for up to 4 h. As a control experiment, the uptake kinetics was performed in the absence of FITC labeled ODN2006. […] These experiments verified the involvement of an alternate uptake mechanism and indicated the presence of a ubiquitous RNA capture receptor that required ˜1 h of maturation time before the endocytosis process could initiate.

[2] = test system: GAPDH; experiment: Energy dependence of cpRNA uptake: transfection at 4° C. or 37° C., GAPDH knockdown; conditions: carrier-free
Description: To determine, if cellular uptake of cpRNA is an energy dependent endocytosis process, transfection experiments were performed at 4° C. and 37° C. Briefly, HCT116, HOB and MG63 cells were plated and incubated with cpRNA (dT5 or dA5 or scrambled siRNA sequence) at 4° C. or 37° C. for 4 h. After 4 h, medium was replaced with fresh medium and the cells were incubated for additional 24 h. Untreated cells were used as controls. Each transfection was performed in triplicate. […] Cellular uptake using these siRNA sequences was reduced by nearly 30% when experiments were performed at 4° C., see FIG. 4.
Next, it was investigated if the cellular uptake mechanism of cpRNA occurred by endocytosis. Transfection experiments were performed with dT5-modified cpRNA at 4° C. and found lower RNAi activity (50% gene knockdown) compared to activity at 37° C. […] Upon endocytosis, the 5-nt overhang length participated in an unknown endosomal escape mechanism that promoted cytosol transport of RNA. […] TLR-7, -8 and -9, selectively bind single-stranded DNA or RNA sequences with TLR-7 and -8 preferentially bind U and G rich sequence while TLR-9 bind CpG nt repeats. TLR3, on the other hand, nonspecifically binds the 21mer RNA duplex after dimerization of the receptor to form a 2:1 TLR3-RNA complex. […]

[3] = test system: IFN-α, IFN-β, IFN-γ; experiment: Interferon assay (IFN-α, β, γ mRNA by RT-PCR) in MG63 cells; conditions: 50 or 100 nM, 24 h, compared to cell-alone control or scrambled sequence
Description: cDNA synthesis was performed in triplicate using total RNA reverse transcribed using High Capacity cDNA reverse transcription kit (Applied Biosystems, USA), with non-template control added to ensure a lack of signal in assay background. Reactions were incubated on a 96-well Applied Biosystems 9800 Fast Thermal Cycler PCR System at 37° C. for 60 min followed by 95° C. for 5 min. The real-time PCR reactions were carried out with 10 μl of 2×TaqMan® Universal PCR Master Mix, no AmpErase® UNG (Applied Biosystems, USA), 9 μl diluted cDNA, and 1 μl of TaqMan gene specific assay mix in a 20 μl final reaction volume. Reference gene beta-actin (ACTB) (Applied Biosystems, USA) was selected as control for normalization of TaqMan data. […] Data from samples with a Ct value equal to or below 35 were further analyzed. Samples were normalized relative to endogenous control and differences in cycle number thresholds were calculated using comparative quantitation 2^−ΔΔcT method (also called the ΔΔCT method), commonly used for analyzing siRNA induced gene knockdown efficiency. […]
Thus, because cellular stress mainly originates from maturation of the RNA-TLR complex in the endosome or activation of RIG-1 in the cytoplasm, we investigated immune activation and IFN response using cpRNA and a scrambled sequence. The levels of Type-I (IFN-α and β) and Type-II (IFN-γ) IFN were tested via quantitative RT-PCR. […]

dT5: GAPDH siRNA, sense SEQ ID NO: 3 with dT5 3′-overhang, antisense SEQ ID NO: 2 with dT2 (sense CCGAGCCACAUCGCUCAGATTTTT; antisense UCUGAGCGAUGUGGCUCGGTT; sense: sugars from the 5' end r19 d5, backbone not given here; antisense: sugars from the 5' end r19 d2, backbone not given here)
effect of ODN2006 on cellular uptake ([1]; MG63 cells pre-incubated 1 h with 600 nM FITC labeled ODN2006): did not inhibit uptake | time after which cellular uptake was initiated ([1]; MG63 cells, 50 nM, 37° C.): ~1 h | time in which uptake finished after initiation ([1]; MG63 cells, 50 nM, 37° C.): 2 h | GAPDH gene knockdown at 4° C. ([2]; incubation at 4° C. for 4 h, then 24 h): 50% | GAPDH gene knockdown at 37° C. ([2]; incubation at 37° C.): 80% | IFN response / immune activation (IFN-α, β, γ mRNA) [3]: no significant IFN response
